Experimental data published in publication PMC6253249, “Protein-Ligand Fishing in planta for Biologically Active Natural Products Using Glutathione Transferases” (Frontiers in Plant Science, 2018).

Tests used:
[1] = target: T1, AtGSTF2 (Arabidopsis thaliana, UniProt P46422); experiment: Isothermal titration calorimetry (ITC) of ligand binding to Strep-tagged AtGSTF2; conditions: for N (binding stoichiometry) / ΔH: 25°C, HBS, 1 mM glutathione, 0.1% w/v Tween 20
T1 construct: Strep-tag (N); made in house; host or cells: Escherichia coli (minimal medium)
T1 sequence (P46422 1-212): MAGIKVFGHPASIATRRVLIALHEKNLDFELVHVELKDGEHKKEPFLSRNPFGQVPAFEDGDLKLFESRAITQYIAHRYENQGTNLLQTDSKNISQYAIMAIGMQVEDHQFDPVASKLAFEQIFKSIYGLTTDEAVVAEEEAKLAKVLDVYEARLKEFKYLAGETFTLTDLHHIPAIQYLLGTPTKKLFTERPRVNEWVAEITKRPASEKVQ
Description: (§1) Isothermal titration calorimetry (ITC) experiments were performed at 25°C in HBS buffer and analyzed using a VP-ITC instrument with Origin 7.0 software (GE Healthcare, Amersham, United Kingdom). Where ligands were added in solvents, an equivalent volume of ethanol was used as control. With the flavonols, 0.1% w/v Tween 20 was used to increase ligand solubility. In addition to titrating ligand into protein, control titrations of ligand into buffer and buffer into protein were performed. For studies with AtGSTF2, the respective Strep-tagged protein was purified from E. coli grown in minimal medium to minimize contamination with pre-bound ligands and used in ITC assuming 1:1 binding to ligand, as previously determined ([Dixon et al., 2011]).
(§2) To investigate the binding characteristics of the ligands to the GSTs, isothermal titration calorimetry (ITC) was used to determine binding affinity and stoichiometry. With AtGSTF2 the commercially available compounds kaempferol and kaempferol-3,7′-dimethylether were used, along with the methylated flavonols purified from the surface of the tobacco leaves (Table 2 and Supplementary Figure S4). […] When AtGSTU19 was tested with ISSG, tight and stoichiometric binding was determined (Table 2 and Supplementary Figure S5). AtGSTU19 enzyme activity, as determined by the GSH conjugation of 1-chloro-2,4-dinitrobenzene, was inhibited by ISSG in a competitive manner with respect to GSH, confirming that ISSG binding occurred at the enzyme active site.
Supplementary Figure S4. Typical ITC data for GSTF2 (7.7 µM) binding to compound 11 (putative kaempferol-3,7’-dimethylether). The experiment was performed in HBS containing 1 mM GSH, 0.1% Tween 20 and 1% ethanol. The associated line indicates best fit curves for a one set of sites binding model.

[2] = target: T2, AtGSTU19 (Arabidopsis thaliana, UniProt Q9ZRW8); experiment: Isothermal titration calorimetry (ITC) of ligand binding to AtGSTU19; conditions: 25°C, HBS, no cofactor listed
T2 construct: Strep-tag (N)
T2 sequence (Q9ZRW8 whole entry): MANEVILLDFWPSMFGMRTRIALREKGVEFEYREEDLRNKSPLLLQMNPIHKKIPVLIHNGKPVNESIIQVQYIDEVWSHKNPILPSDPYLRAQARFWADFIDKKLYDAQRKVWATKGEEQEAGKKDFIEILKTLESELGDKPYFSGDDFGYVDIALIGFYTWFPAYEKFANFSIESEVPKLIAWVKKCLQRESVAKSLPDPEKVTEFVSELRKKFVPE
Description: as §1, §2
Supplementary Figure S5. Analysis of GSTU19 ligand binding by ITC.
Binding of ISSG to 11.1 uM GSTU19. A best fit line corresponding to a one set of
sites binding model is shown.

[3] = target: T3, GSTU19 (Arabidopsis thaliana, UniProt Q9ZRW8); experiment: Isothermal titration calorimetry at 25 °C in HBS, ligand titrated into GSTU19, no GSH marked for these rows, one-set-of-sites fit.; assay type: binding; conditions: read-out: Ka (μM^-1) (converted)
T3 construct: recombinant, Strep-tagged
T3 sequence (Q9ZRW8 whole entry): as above
Description: as §1
as §2, with “stoichiometry.” for “stoichiometry. With AtGSTF2 the commercially available compounds kaempferol and kaempferol-3,7′-dimethylether were used, along with the methylated flavonols purified from the surface of the tobacco leaves (Table 2 and Supplementary Figure S4).”, “site. […]” for “site.”

[4] = target: T2, AtGSTU19; experiment: AtGSTU19 enzyme activity, GSH conjugation of 1-chloro-2,4-dinitrobenzene, inhibition; assay type: biochemical; conditions: with respect to GSH; substrate 1-chloro-2,4-dinitrobenzene
Description: as §2

[5] = system: GSTUs from poppy; parameters: method as in Yu and Facchini, 2000; conditions: ref Yu and Facchini, 2000; cited from earlier work

## COc1cc(O)c2c(=O)c(OC)c(-c3ccc(O)cc3)oc2c1 [Compound 11, kaempferol-3,7′-dimethylether]
[1]
  Kd: 220 nM

## COc1ccc(-c2oc3cc(OC)cc(O)c3c(=O)c2OC)cc1 [Compound 13, kaempferol-3,7,4′-trimethylether]
[1]
  Kd: < 1000 nM
  N (binding stoichiometry): 0.54 ± 0.01
  ΔH: -18.4 ± 0.2 kcal/mol

## CCCCCCSC[C@H](NC(=O)CC[C@H](N)C(=O)O)C(=O)NCC(=O)O [S-hexylglutathione, reference compound]
[2]
  N (binding stoichiometry): 0.84 ± 0.01
  ΔH: -11.8 ± 0.1 kcal/mol

## CCCCCCSC[C@H](NC(=O)CC[C@H](N)C(=O)O)C(=O)NCC(=O)O [S-hexylglutathione]
[3]
  Kd: 0.311 µM

## O=c1c(O)c(-c2ccc(O)cc2)oc2cc(O)cc(O)c12 [kaempferol, reference compound]
[1]
  Kd: 12000 nM
  N (binding stoichiometry): 0.60 ± 0.05
  ΔH: -12.6 ± 1.4 kcal/mol

## NC(CCC(=O)NC(CSSCc1c[nH]c2ccccc12)C(=O)NCC(=O)O)C(=O)O (stereo not drawn) [ISSG, 3-methylindolyl glutathionyl disulfide]
[2]
  N (binding stoichiometry): 0.98 ± 0.01
  ΔH: -10.6 ± 0.1 kcal/mol
[4]
  Mode of inhibition of AtGSTU19 enzyme activity: competitive

## COc1cc(/C=C/C(=O)NCCc2ccc(O)cc2)ccc1O [feruloyltyramine, N-trans-feruloyltyramine]
[5]
  Inhibition of poppy GSTUs (in words): weakly inhibiting

## N[C@@H](CCC(=O)N[C@@H](CSSCc1c[nH]c2ccccc12)C(=O)NCC(=O)O)C(=O)O [ISSG, 3-methylindolyl glutathionyl disulfide]
[3]
  Kd: 0.117 µM
